Data from ChEMBL document CHEMBL3885861, “Open TG-GATES”.

Species: Rattus norvegicus
Assay: Open TG-GATES - Regimen: Single
Type: toxicity, organism-based, Sprague-Dawley
Set-up: regimen Single, gender Male, age 6 weeks
Conditions: in vivo, po, 1 mg/kg, route gavage, dose level Low; for APTT / Bas / Eos / Fbg / Hb / Ht / Lym / MCH / MCHC / MCV / Mono / Neu / PT / Plat / RBC / Ret / WBC: tissue Blood; for KIDNEY_L / KIDNEY_R / KIDNEY_TOTAL: tissue Kidney; for LIVER: tissue Liver; for A/G / ALP / ALT / AST / BUN / CRE / Ca / Cl / DBIL / GLC / IP / K / LDH / Na / PL / RALB / TBIL / TC / TG / TP / gamma-GTP: tissue Plasma

With `O=NN(CCCl)C(=O)NC1CCCCC1` [LOMUSTINE] the TERMINAL_BW (3 h) was 204.1 g, the APTT (3 h) was 16.5 s and the Bas (3 h) was 0%. For the same molecule, the Eos (3 h) was 0.2%, the Fbg (3 h) was 224.2 mg/dL and the Hb (3 h) was 13.4 g/dL. The Ht (3 h) was 40.4%, the Lym (3 h) was 78.8% and the MCH (3 h) was 21.6 pg. The MCHC (3 h) was 33.2%, the MCV (3 h) was 65.2 fL and the Mono (3 h) was 8.4%. The Neu (3 h) was 12.2%, the PT (3 h) was 11.3 s and the Plat (3 h) was 105.5 x10_4/uL. It also gave an RBC (3 h) of 619 x10_4/ul, a Ret (3 h) of 8.6% and a WBC (3 h) of 119.1 x10_2/uL. For the same molecule, the KIDNEY_L (3 h) was 0.9 g, the KIDNEY_R (3 h) was 0.9 g and the KIDNEY_TOTAL (3 h) was 1.9 g. For the same molecule, the LIVER (3 h) was 9.6 g, the A/G (3 h) was 2 and the ALP (3 h) was 970.8 IU/L. For the same molecule, the ALT (3 h) was 33.4 IU/L, the AST (3 h) was 60 IU/L and the BUN (3 h) was 11 mg/dL. For the same molecule, the CRE (3 h) was 0.5 mg/dL, the Ca (3 h) was 11.4 mg/dL and the Cl (3 h) was 105.8 meq/L. It also gave a DBIL (3 h) of 0.028 mg/dL, a GLC (3 h) of 184.2 mg/dL and an IP (3 h) of 10 mg/dL. For the same molecule, the K (3 h) was 4.8 meq/L, the LDH (3 h) was 82.2 IU/L and the Na (3 h) was 139.8 meq/L. The PL (3 h) was 135.8 mg/dL, the RALB (3 h) was 3.7 g/dL and the TBIL (3 h) was 0.3 mg/dL. It also gave a TC (3 h) of 79 mg/dL, a TG (3 h) of 52.4 mg/dL and a TP (3 h) of 5.6 g/dL. For the same molecule, the gamma-GTP (3 h) was 1.4 IU/L, the TERMINAL_BW (6 h) was 203.2 g and the APTT (6 h) was 16.9 s. The Bas (6 h) was 0%, the Eos (6 h) was 0.4% and the Fbg (6 h) was 227.8 mg/dL. For the same molecule, the Hb (6 h) was 13.4 g/dL, the Ht (6 h) was 40.2% and the Lym (6 h) was 82%. For the same molecule, the MCH (6 h) was 21.8 pg, the MCHC (6 h) was 33.3% and the MCV (6 h) was 65.6 fL. For the same molecule, the Mono (6 h) was 5.8%, the Neu (6 h) was 11.8% and the PT (6 h) was 12.2 s. It also gave a Plat (6 h) of 96.8 x10_4/uL, an RBC (6 h) of 613.2 x10_4/ul and a Ret (6 h) of 9%. The WBC (6 h) was 116.2 x10_2/uL, the KIDNEY_L (6 h) was 0.9 g and the KIDNEY_R (6 h) was 0.9 g. For the same molecule, the KIDNEY_TOTAL (6 h) was 1.9 g, the LIVER (6 h) was 9 g and the A/G (6 h) was 2. The ALP (6 h) was 759.8 IU/L, the ALT (6 h) was 33.2 IU/L and the AST (6 h) was 66.6 IU/L. For the same molecule, the BUN (6 h) was 11.2 mg/dL, the CRE (6 h) was 0.5 mg/dL and the Ca (6 h) was 10.9 mg/dL. The Cl (6 h) was 104.6 meq/L, the DBIL (6 h) was 0.008 mg/dL and the GLC (6 h) was 188.6 mg/dL. For the same molecule, the IP (6 h) was 10.5 mg/dL, the K (6 h) was 5.1 meq/L and the LDH (6 h) was 90.2 IU/L. The Na (6 h) was 140.8 meq/L, the PL (6 h) was 142.8 mg/dL and the RALB (6 h) was 3.7 g/dL. The TBIL (6 h) was 0.2 mg/dL, the TC (6 h) was 84 mg/dL and the TG (6 h) was 41.2 mg/dL. For the same molecule, the TP (6 h) was 5.5 g/dL and the gamma-GTP (6 h) was 1.4 IU/L.
